This note sets out measurements from patent US9951055B2, “Thiazole-based inhibitors of scavenger receptor BI” (THE BROAD INSTITUTE, INC., priority 2012, dated 2018).

SMILES strings stand for the structures. Residue numbers refer to the chain shown, from its start. pIC50: −log10 of the molar value.

In data set [1] the target is T1, murine SR-BI with the C384S mutation (Mus musculus, UniProt Q61009, C384S).
T1 construct: expressed in transfected cells; host or cells: CHO cell line lacking LDL receptors (variant of ldlA[mSR-BI])
T1 sequence (Q61009 1-509 C384S): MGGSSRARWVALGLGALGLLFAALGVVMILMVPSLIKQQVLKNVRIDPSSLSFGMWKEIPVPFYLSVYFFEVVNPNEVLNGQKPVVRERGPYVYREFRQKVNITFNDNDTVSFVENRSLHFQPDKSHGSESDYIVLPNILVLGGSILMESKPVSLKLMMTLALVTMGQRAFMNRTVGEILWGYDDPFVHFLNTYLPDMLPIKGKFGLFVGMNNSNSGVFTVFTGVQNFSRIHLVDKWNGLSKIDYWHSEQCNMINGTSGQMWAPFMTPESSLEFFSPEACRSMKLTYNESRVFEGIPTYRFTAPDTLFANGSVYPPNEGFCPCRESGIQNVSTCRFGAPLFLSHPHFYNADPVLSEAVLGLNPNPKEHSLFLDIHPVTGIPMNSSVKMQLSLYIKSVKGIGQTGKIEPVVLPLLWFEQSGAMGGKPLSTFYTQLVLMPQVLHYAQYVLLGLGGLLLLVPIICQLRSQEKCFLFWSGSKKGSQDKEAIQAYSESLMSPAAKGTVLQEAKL
Kind of data set: Mutant SR-BI cholesterol efflux assay. Format: cell-based. As to the method:
Mutant SR-BI Cholesterol Efflux Assay (SA 10: AID Nos. 588843, 602138)
BLT-1 is known to interact at cysteine 384 of SR-BI (16). […] This assay is used to determine if the compounds work in a similar fashion to BLT-1 and require Cys384 to alter the efflux of free cholesterol to HDL.
On Day 0, 50,000 cells expressing murine SR-BI with the C384S mutation per well were plated in 24-well plates. On the following day, […] On Day 1, the medium was replaced with Ham's F12 medium supplemented with 10% bovine lipoprotein deficient serum with 1 μCi/ml [1,2-^3H]cholesterol (40-60 Ci/mmol). On Day 3, the cells were washed to remove serum and incubated in Ham's F12 plus 1% fatty acid-free BSA. On Day 4, the cells were washed and pretreated with compounds for 1 hour. Subsequently, the cells were incubated for an additional 2 hours with the same concentrations of small molecules and with unlabeled HDL (final HDL concentration of 100 μg protein/ml). […] The amount of [^3H]cholesterol in the medium and within cells was calculated using liquid scintillation counting. Total cellular [^3H]cholesterol was determined as the sum of the radioactivity in the efflux medium plus the radioactivity in the cells and was used to calculate the [^3H]cholesterol efflux (percent of total [^3H]cholesterol released into the medium).

The nature of another data set: Plasma protein binding. Format: in vitro ADME. The settings on record: human plasma; read-out: plasma protein binding, bound (converted).
The next data set addresses T2, SR-BI (Mus musculus, UniProt Q61009).
T2 sequence (Q61009 1-509): T1 sequence (Q61009 1-509 C384S) with S384C
The experiment in a line: Radioactive HDL uptake assay (wild type SR-BI). Format: cell-based, murine. The settings on record: [3H]cholesteryl ester HDL; read-out: average IC50, radiolabeled version of the uptake assay. Details: expressed in transfected cells; host or cells: ldlA[mSR-BI]; (CHO ldlA7 derivative lacking the LDL receptor). The source says: Radioactive HDL Uptake Assay (wild type SR-BI) (SA 8: AID No. 588836)
The goal of this assay is to verify compounds that disrupt the lipid uptake from HDL particles to SR-BI scavenger receptor-expressing cells using an alternative means of labeling HDL particles and avoiding any type of fluorescence measurement. To measure this binding event, HDL particles are labeled with [^3H]cholesteryl ester and added to mSR-BI expressing cells. Cells take up the radioactive lipids from HDL via SR-BI in 2 to 3 hours. After significant uptake of the lipids from HDL, the radiolabel can be detected by liquid scintillation counting. The level of radioactivity correlates with the amount of HDL lipid uptake. The uptake of lipid from the HDL particles particles can be inhibited by the compound BLT-1 or when co-treated with an excess of unlabeled HDL. The ldlA[mSR-BI]-expressing cells utilized in the assay are from a Chinese Hamster Ovary (CHO) cell line lacking expression of the LDL receptors and overexpressing the scavenger receptor, SR-BI. Inhibitors of SR-BI and HDL lipid uptake will have a reduction in liquid scintillation counts.

Data set [2] in a line: Cell cytotoxicity assay (CellTiter-Glo). Format: cell-based, Chinese hamster. The settings on record: Chinese hamster, ldlA[mSR-BI] cells; after 24 hours of treatment. As to the method:
It is possible that a compound will cause cells to decrease HDL-mediated DiI uptake due to nonspecific consequences of cellular toxicity, representing a second class of false positive hits. The cells were treated with compounds for 3 hours or 24 hours, and then cell viability was measured using the CellTiter-Glo Assay (Promega), a luciferase-based reagent that measures cellular ATP levels. The compounds were tested at different concentrations to determine IC50 values. […] Compounds that were active in the primary assay but toxic below 30 μM at 24 hours (but nontoxic at 3 hours) were still considered. […] Data were normalized against DMSO and the positive control (1 μM BLT-1) in Genedata Assay Analyzer.
All available dry powder samples of the remaining, non-quenching compounds were procured from commercial sources and purities were determined. The compounds obtained were then retested in the primary assay and in the cytotoxicity assays. We wanted to rule out any compounds that were cytotoxic, especially in the 3-hour time span of the primary DiI-HDL uptake assay. Therefore, compounds were tested in ldlA[mSR-BI]cells for cytotoxicity at 3 hours and 24 hours using the CellTiter-Glo assay (Promega) that measures cellular ATP as a marker of cell viability. […] Compounds were screened for inhibition of endocytosis using labeled transferrin, which is known to bind the transferrin receptor, enter cells by clathrin-mediated endocytosis, and move to endosomes before being recycled to the cell surface. The BLT compounds have also been tested for potential interference with endocytosis and show no such activity.
(Cellular ATP, detected with luciferase, serves as a proxy for viable cell number.)

On to `CCCCCCC1CCCC1=NNC(N)=S` (centres unmarked) [BLT-1, reference compound], for which the “efflux of cholesterol in Cys384Ser mutant background” value in data set [1] is “does not significantly reduce uptake of HDL or efflux of cholesterol”.

In general, pIC50 refers to the IC50 on a negative log10 scale, so that one unit is a factor of ten. The term EC50 denotes the concentration giving half of the maximal effect. On to `COCC(=O)N1CCc2cc(-c3csc(NC(=O)c4cc(OC)cc(OC)c4)n3)ccc21` [Compound 137, 3,5-Dimethoxy-N-(4-(1-(2-methoxyacetyl)indolin-5-yl)thiazol-2-yl)benzamide], for which the fraction unbound in the data set “Plasma protein binding” is 0.065. In addition, at SR-BI, the pIC50 is 6.00. The “efflux of cholesterol in Cys384Ser mutant background” value in data set [1] is “can reduce uptake and efflux in the mutant background”. The EC50 at 24 h in data set [2] is more than 35000 nM.
